IC50 data for 47 molecules are collected here from patent US9115093B2, “Substituted bicyclic dihydropyrimidinones and their use as inhibitors of neutrophil elastase activity” (Boehringer Ingelheim International GmbH, priority 2013, dated 2015).

The assay has as its target T1, neutrophil elastase (Homo sapiens, UniProt P08246).
T1 sequence (P08246 30-247 limits assumed): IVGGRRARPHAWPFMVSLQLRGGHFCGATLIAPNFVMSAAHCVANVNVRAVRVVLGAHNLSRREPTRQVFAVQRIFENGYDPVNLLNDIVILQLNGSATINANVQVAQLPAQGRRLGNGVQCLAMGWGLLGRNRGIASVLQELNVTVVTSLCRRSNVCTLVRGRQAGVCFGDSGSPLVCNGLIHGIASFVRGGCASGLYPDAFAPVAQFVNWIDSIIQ
The assay is described as follows: Human Neutrophil Elastase Assay. In kind it is biochemical. Set-up: purchased Calbiochem 324681. To be noted: substrate MeOSuc-Ala-Ala-Pro-Val-AMC, pH 7.5, room temperature. The protocol: Human Neutrophil Elastase Assay
Materials: Human neutrophil elastase was purchased from Calbiochem (Cat.No.: 324681) and the elastase substrate MeOSuc-Ala-Ala-Pro-Val-AMC from Bachem (Cat.No.: I-1270). All other materials were of the highest grade commercially available.
The following buffers were used: Compound buffer: 100 mM Tris, 500 mM NaCl, adjusted to pH 7.5; Assay buffer: 100 mM Tris, 500 mM NaCl, adjusted to pH 7.5, containing 0.01% BSA.
Assay conditions: Test compounds were prediluted in DMSO and subsequently in compound buffer (5% DMSO final). 5 μL of these compound dilutions were mixed with 10 μl Neutrophil elastase (9 ng/ml in assay buffer) in a black 384 well OptiPlate (Perkin Elmer, Cat No.: 6007270) and incubated for 15 min at room temperature. Subsequently 10 μL substrate solution in assay buffer were added (250 nM final concentration) and the plates were incubated for 60 min at room temperature. After inactivation of the enzyme, fluorescence intensities were measured at 380 nm excitation and 460 nm emission wavelengths.
Each plate contains wells with a high value control (DMSO+enzyme+substrate) and wells with a low value control (DMSO+inactivated enzyme+substrate). IC50 values were estimated using a sigmoidal concentration response curve with variable slope. Means of low values were taken as 0%, means of high values as 100%.

Some results are limits rather than exact numbers.

As for `N#Cc1ccc(C2C3=C(CCCC3=O)N(c3cccc(C(F)(F)F)c3)C(=O)N2CC(=O)NCCn2cccn2)cc1` (centres unmarked) [Example 36.32], the IC50 was found to be 14 nM.

In turn, `Cn1ccc(CNC(=O)CN2C(=O)N(c3cccc(C(F)(F)F)c3)C3=C(C(=O)CCC3)C2c2ccc(C#N)cc2)n1` (centres unmarked) [Example 36.33] returned a concentration for half-maximal inhibition (IC50) of 17.1 nM.

Molecule `N#Cc1ccc(C2C3=C(CCCC3=O)N(c3cccc(C(F)(F)F)c3)C(=O)N2CC(=O)N2CCC3(CC2)CC3)cc1` (centres unmarked) [Example 36.34] registered an IC50 of 10.7 nM.

In turn, `Cc1nnc(CNC(=O)CN2C(=O)N(c3cccc(C(F)(F)F)c3)C3=C(C(=O)CCC3)C2c2ccc(C#N)cc2)o1` (centres unmarked) [Example 36.35] returned an IC50 of 7 nM.

Molecule `N#Cc1ccc(C2C3=C(CCCC3=O)N(c3cccc(C(F)(F)F)c3)C(=O)N2CC(=O)NCC2CCC(=O)N2)cc1` (centres unmarked) [Example 36.36] showed an IC50 of 7.9 nM.

In turn, `CN1CCN(C(=O)CN2C(=O)N(c3cccc(C(F)(F)F)c3)C3=C(C(=O)CCC3)C2c2ccc(C#N)cc2)CC1=O` (centres unmarked) [Example 36.37] gave an IC50 of 4.2 nM.

For `CN1CCC(NC(=O)CN2C(=O)N(c3cccc(C(F)(F)F)c3)C3=C(C(=O)CCC3)C2c2ccc(C#N)cc2)CC1` (centres unmarked) [Example 36.38], the IC50 turned out to be 16.9 nM.

Take `CN1CCCC1CNC(=O)CN1C(=O)N(c2cccc(C(F)(F)F)c2)C2=C(C(=O)CCC2)C1c1ccc(C#N)cc1` (centres unmarked) [Example 36.39]: it took 26.3 nM to reach half-maximal inhibition (IC50).

Regarding `COC1CCN(C(=O)CN2C(=O)N(c3cccc(C(F)(F)F)c3)C3=C(C(=O)CCC3)C2c2ccc(C#N)cc2)CC1` (centres unmarked) [Example 36.40], half-maximal inhibition (IC50) was put at 3.1 nM.

Take `CN(CC1(C)COC1)C(=O)CN1C(=O)N(c2cccc(C(F)(F)F)c2)C2=C(C(=O)CCC2)C1c1ccc(C#N)cc1` (centres unmarked) [Example 36.41]: the IC50 is 7.4 nM.

The molecule `N#Cc1ccc(C2C3=C(CCCC3=O)N(c3cccc(C(F)(F)F)c3)C(=O)N2CC(=O)NCC2CCCOC2)cc1` (centres unmarked) [Example 36.42] yielded an IC50 of 9.9 nM.

Regarding `CN(C)CCCN(C)C(=O)CN1C(=O)N(c2cccc(C(F)(F)F)c2)C2=C(C(=O)CCC2)C1c1ccc(C#N)cc1` (centres unmarked) [Example 36.43], the IC50 stood at 12.1 nM.

As to `N#Cc1ccc(C2C3=C(CCCC3=O)N(c3cccc(C(F)(F)F)c3)C(=O)N2CC(=O)N2Cc3ccccc3C2)cc1` (centres unmarked) [Example 36.44], it took 9.3 nM to reach half-maximal inhibition (IC50).

For `N#Cc1ccc(C2C3=C(CCCC3=O)N(c3cccc(C(F)(F)F)c3)C(=O)N2CC(=O)N2CC[S+]([O-])CC2)cc1` (centres unmarked) [Example 36.45], the IC50 came out at 2.1 nM.

In turn, `N#Cc1ccc(C2C3=C(CCCC3=O)N(c3cccc(C(F)(F)F)c3)C(=O)N2CC(=O)N2Cc3cccnc3C2)cc1` (centres unmarked) [Example 36.46] had an IC50 of 1.2 nM.

In the case of `CN(Cc1ccccc1)C(=O)CN1C(=O)N(c2cccc(C(F)(F)F)c2)C2=C(C(=O)CCC2)C1c1ccc(C#N)cc1` (centres unmarked) [Example 36.47], the IC50 was 13.8 nM.

For `N#Cc1ccc(C2C3=C(CCCC3=O)N(c3cccc(C(F)(F)F)c3)C(=O)N2CC(=O)N2CCn3cccc3C2)cc1` (centres unmarked) [Example 36.48], the midpoint of inhibition, the IC50, lay at 6.2 nM.

For `N#Cc1ccc(C2C3=C(CCCC3=O)N(c3cccc(C(F)(F)F)c3)C(=O)N2CC(=O)N2CCn3cncc3C2)cc1` (centres unmarked) [Example 36.49], the IC50 came to 2.6 nM.

`N#Cc1ccc(C2C3=C(CCCC3=O)N(c3cccc(C(F)(F)F)c3)C(=O)N2CC(=O)N2CCn3nccc3C2)cc1` (centres unmarked) [Example 36.51]: the IC50 turned out to be 1.7 nM.

As for `N#Cc1ccc(C2C3=C(CCCC3=O)N(c3cccc(C(F)(F)F)c3)C(=O)N2CC(=O)NCc2ccc(=O)[nH]c2)cc1` (centres unmarked) [Example 36.52], the concentration for half-maximal inhibition (IC50) was determined as 11.7 nM.

On to `Cn1cc(NC(=O)CN2C(=O)N(c3cccc(C(F)(F)F)c3)C3=C(C(=O)CCC3)C2c2ccc(C#N)cc2)ccc1=O` (centres unmarked) [Example 36.53], for which half-maximal inhibition (IC50) required 10.7 nM.

`CN(Cc1cnn(C)c1)C(=O)CN1C(=O)N(c2cccc(C(F)(F)F)c2)C2=C(C(=O)CCC2)C1c1ccc(C#N)cc1` (centres unmarked) [Example 36.54] yielded an IC50 of 2.9 nM.

Turning to `N#Cc1ccc(C2C3=C(CCCC3=O)N(c3cccc(C(F)(F)F)c3)C(=O)N2CC(=O)N2CCN(C3CC3)CC2)cc1` (centres unmarked) [Example 36.55], the IC50 was determined as 21.6 nM.

For `N#Cc1ccc(C2C3=C(CCCC3=O)N(c3cccc(C(F)(F)F)c3)C(=O)N2CC(=O)N2CCN3CCCC3C2)cc1` (centres unmarked) [Example 36.56], the IC50 amounted to 8 nM.

`CN1C(=O)CCC1CNC(=O)CN1C(=O)N(c2cccc(C(F)(F)F)c2)C2=C(C(=O)CCC2)C1c1ccc(C#N)cc1` (centres unmarked) [Example 36.57] gave an IC50 of 10.4 nM.

Turning to `N#Cc1ccc(C2C3=C(CCCC3=O)N(c3cccc(C(F)(F)F)c3)C(=O)N2CC(=O)NCCN2CCCC2=O)cc1` (centres unmarked) [Example 36.58], the IC50 amounted to 10 nM.

`CN1CC(CNC(=O)CN2C(=O)N(c3cccc(C(F)(F)F)c3)C3=C(C(=O)CCC3)C2c2ccc(C#N)cc2)CC1=O` (centres unmarked) [Example 36.59] had an IC50 of 8.6 nM.

`CC(=O)N1CCN(C(=O)CN2C(=O)N(c3cccc(C(F)(F)F)c3)C3=C(C(=O)CCC3)C2c2ccc(C#N)cc2)CC1` (centres unmarked) [Example 36.60] showed an IC50 of 3.7 nM.

`N#Cc1ccc(C2C3=C(CCCC3=O)N(c3cccc(C(F)(F)F)c3)C(=O)N2CC(=O)NCCN2CCOCC2)cc1` (centres unmarked) [Example 36.63] came in with an IC50 of 13.9 nM.

`N#Cc1ccc(C2C3=C(CCCC3=O)N(c3cccc(C(F)(F)F)c3)C(=O)N2CC(=O)N2CCc3cnccc3C2)cc1` (centres unmarked) [Example 36.64]: half-maximal inhibition (IC50) was put at 5.6 nM.

In the case of `Cc1nc2c(o1)CN(C(=O)CN1C(=O)N(c3cccc(C(F)(F)F)c3)C3=C(C(=O)CCC3)C1c1ccc(C#N)cc1)CC2` (centres unmarked) [Example 36.65], half-maximal inhibition (IC50) was put at 16.2 nM.

`CN1CCC2(CCN(C(=O)CN3C(=O)N(c4cccc(C(F)(F)F)c4)C4=C(C(=O)CCC4)C3c3ccc(C#N)cc3)C2)C1` (centres unmarked) [Example 36.66] showed an IC50 of 5.8 nM.

`CN(CCN1CCCC1=O)C(=O)CN1C(=O)N(c2cccc(C(F)(F)F)c2)C2=C(C(=O)CCC2)C1c1ccc(C#N)cc1` (centres unmarked) [Example 36.67] had an IC50 of 4.2 nM.

Take `CN(CCN1CCOCC1)C(=O)CN1C(=O)N(c2cccc(C(F)(F)F)c2)C2=C(C(=O)CCC2)C1c1ccc(C#N)cc1` (centres unmarked) [Example 36.68]: the IC50 was 8.7 nM.

`CN(C(=O)CN1C(=O)N(c2cccc(C(F)(F)F)c2)C2=C(C(=O)CCC2)C1c1ccc(C#N)cc1)C1CCS(=O)(=O)C1` (centres unmarked) [Example 36.69] displayed an IC50 of 3.1 nM.

On to `CS(=O)(=O)C1CCN(C(=O)CN2C(=O)N(c3cccc(C(F)(F)F)c3)C3=C(C(=O)CCC3)C2c2ccc(C#N)cc2)C1` (centres unmarked) [Example 36.70], for which the IC50 was 2.3 nM.

Molecule `N#Cc1ccc(C2C3=C(CCCC3=O)N(c3cccc(C(F)(F)F)c3)C(=O)N2CC(=O)N2CCc3[nH]c(=O)ccc3C2)cc1` (centres unmarked) [Example 36.71] displayed an IC50 of 2.2 nM.

In turn, `N#Cc1ccc(C2C3=C(CCCC3=O)N(c3cccc(C(F)(F)F)c3)C(=O)N2CC(=O)N2CCN3C(=O)CCCC3C2)cc1` (centres unmarked) [Example 36.72] registered an IC50 of 3.7 nM.

For the molecule `N#Cc1ccc(C2C3=C(CCCC3=O)N(c3cccc(C(F)(F)F)c3)C(=O)N2CC(=O)N2CC(=O)N3CCCCC3C2)cc1` (centres unmarked) [Example 36.73], inhibition was half-maximal at 35.5 nM (IC50).

Consider `N#Cc1ccc(C2C3=C(CCCC3=O)N(c3cccc(C(F)(F)F)c3)C(=O)N2CC(=O)N2CCC3(CC2)CNC(=O)O3)cc1` (centres unmarked) [Example 36.74], for which the IC50 stood at 2.1 nM.

The molecule `CS(=O)(=O)N1CCN(C(=O)CN2C(=O)N(c3cccc(C(F)(F)F)c3)C3=C(C(=O)CCC3)C2c2ccc(C#N)cc2)CC1` (centres unmarked) [Example 36.75] had an IC50 of 2.4 nM.

`CS(=O)(=O)c1ccc(CNC(=O)N2C(=O)N(c3cccc(C(F)(F)F)c3)C3=C(C(=O)CCC3)C2c2ccc(C#N)cc2)cc1` (centres unmarked) [Example 37, 4-(4-Cyanophenyl)-N-(4-(methylsulfonyl)benzyl)-2,5-dioxo-1-(3-(trifluoromethyl)-phenyl)-1,2,5,6,7,8-hexahydroquinazoline-3(4H)-carboxamide] had an IC50 of under 1 nM.

Turning to `CN(C)C(=O)N1C(=O)N(c2cccc(C(F)(F)F)c2)C2=C(C(=O)CCC2)C1c1ccc(C#N)cc1` (centres unmarked) [Example 38, 4-(4-Cyanophenyl)-N,N-dimethyl-2,5-dioxo-1-(3-(trifluoromethyl)phenyl)-1,2,5,6,7,8-hexahydroquinazoline-3(4H)-carboxamide], 67.1 nM corresponded to half-maximal inhibition (IC50).

The molecule `COCCNC(=O)N1C(=O)N(c2cccc(C(F)(F)F)c2)C2=C(C(=O)CCC2)C1c1ccc(C#N)cc1` (centres unmarked) [Example 39, 4-(4-Cyanophenyl)-N-(2-methoxyethyl)-2,5-dioxo-1-(3-(trifluoromethyl)phenyl)-1,2,5,6,7,8-hexahydroquinazoline-3(4H)-carboxamide] yielded an IC50 of 1 nM.

As for `CNC(=O)N1C(=O)N(c2cccc(C(F)(F)F)c2)C2=C(C(=O)CCC2)C1c1ccc(C#N)cc1` (centres unmarked) [Example 39.1], the IC50 is 1.2 nM.

`CCCNC(=O)N1C(=O)N(c2cccc(C(F)(F)F)c2)C2=C(C(=O)CCC2)C1c1ccc(C#N)cc1` (centres unmarked) [Example 39.2] showed an IC50 of 1 nM.

Molecule `N#Cc1ccc(C2C3=C(CCCC3=O)N(c3cccc(C(F)(F)F)c3)C(=O)N2C(=O)N2CC(O)C2)cc1` (centres unmarked) [Example 39.4] showed an IC50 of 13.4 nM.

A word on the IC50: it is the concentration needed to halve the response being measured. High values mean lower potency, low ones higher potency.
